Read-outs that look alike come from different tables or passages of the source.
Tests used:
[1] = molecular target: 4-hydroxy-2-keto-heptane-1,7-dioate aldolase from Acinetobacter baumannii (Acinetobacter baumannii); test: SEC; Superdex 200 Increase 10/300 GL, 10 mM HEPES pH 7.0 with 150 mM NaCl, 0.5 ml/min, 25 °C, calibrated with protein standards of 12.4-440 kDa
[2] = molecular target: 4-hydroxy-2-keto-heptane-1,7-dioate aldolase from Acinetobacter baumannii (Acinetobacter baumannii); test: crystal structure; 11 structures of AbHpaI (apo and with M2+ and ligands), monoclinic C2 crystals, trimer per asymmetric unit, hexamer by twofold rotational symmetry; crystals grown with sodium acetate pH 4.6, CaCl2 and 30% MPD
[3] = test system: AbHpaI•Zn^2+; type: biochemical, Acinetobacter baumannii
[4] = test system: AbHpaI•Zn^2+; type: biochemical, Acinetobacter baumannii; remark: listed apart in the source
[5] = test system: AbHpaI•Zn^2+; test: Steady-state aldol cleavage followed as substrate depletion by RapidFire high-throughput mass spectrometry in 10 mM HEPES pH 7.0 with 0.1 mM Zn2+ and 5 uM ((4R)-KDGal) or 40 uM ((4S)-KDGlu) enzyme, Michaelis-Menten fit.; type: biochemical
Method: The aldol cleavage steady-state kinetics of (4R)-KDGal and (4S)-KDGlu catalyzed by AbHpaI•Zn^2+ were carried out using RapidFire high-throughput mass spectrometry. The reactions contained 0.1 mM ZnCl2 and the purified AbHpaI in buffer H and varying concentrations of the substrate. […] Before RapidFire analysis, the reaction was quenched by an equal volume of ACN at various times (0.5–30 min) and the quenched solution was centrifuged at 12,000g for 10 min and filtered by a 0.22-μm nylon membrane syringe filter (FilterBio Nylon Syringe Filter) to obtain the filtrate of the remaining substrate. The substrate control reaction without the enzyme was performed. […] Peak areas of the remaining substrate were measured in a negative mode with a quantitative selected ion monitoring (SIM) mode to detect the m/z 177.0 ([M-H]^−) of both (4R)-KDGal and (4S)-KDGlu, and the concentrations were determined from the calibration plot of substrate standard concentrations (0.025–3.2 mM) versus peak areas. The initial velocity (νo) of the substrate depletion from each individual concentration of substrate was calculated from the slope of the plot between the remaining substrate and time. The plots of νo versus each substrate concentration were analyzed by Michaelis–Menten equation using the Levenberg–Marquardt algorithms in GraphPad Prism version 7 software (GraphPad Software, Inc) to determine Km and kcat.

[6] = test system: BxBphI; settings: cited from earlier work
[7] = test system: AbHpaI; type: biochemical, Acinetobacter baumannii
[8] = test system: AbHpaI; type: physicochemical, Acinetobacter baumannii
[9] = test system: AbHpaI; type: binding, Acinetobacter baumannii
[10] = test system: AbHpaI; type: physicochemical, Acinetobacter baumannii; remark: listed apart in the source
[11] = test system: AbHpaI•Zn^2+; settings: read-out: Km (mM), aldol condensation of (4R)-KDGal synthesis, D-glyceraldehyde varied
[12] = molecular target: AbHpaI•Co^2+; test: Isothermal titration calorimetry (MicroCal PEAQ-ITC) of 10 mM pyruvate into 40 uM apo-AbHpaI mixed with metal ion at 10 times its Kd, 50 mM HEPES pH 7.0, 25 °C, one-site binding model.
Method: (§1) The Kd values for the binding of AbHpaI with ligands including M^2+ ions (Zn^2+, Co^2+, Mn^2+, Mg^2+, and Ca^2+) and pyruvate were measured by MicroCal PEAQ-ITC technique (Malvern Panalytical). Briefly, a 10-ml solution of apo-AbHpaI (200 μM) was dialyzed in 2 l of buffer F at 4 °C for 16 to 18 h. The dialyzed buffer was used to prepare a stock solution of each ligand. To measure the Kd value for the AbHpaI•M^2+ complex, a 200-μl solution of the apo-AbHpaI (40 μM) was loaded into the sample cell and the Milli-Q Type I ultrapure water was used as a reference. Three microliters of 1.5 mM ligand solution of each M^2+ in a syringe was continuously titrated into the sample cell (0.3 μM per each injection for 13 injections) until the ligand binding reached an equilibrium at 25 °C. The Microcal PEAQ-ITC analysis software was used to calculate the Kd using the one-site binding model. To determine the pyruvate binding constant to AbHpaI, a 200-μl solution of the apo-AbHpaI (40 μM) was placed in the sample cell and sequentially titrated with 3 μl of 10 mM pyruvate solution from a syringe. To determine the pyruvate binding constant to the AbHpaI•M^2+ complex, a 200-μl solution of the mixture of apo-AbHpaI (40 μM) and 10 Kd of each M^2+ was placed in the sample cell and sequentially titrated with 3 μl of a 10 mM solution mixture of pyruvate and 10 Kd of each M^2+.

[13] = molecular target: AbHpaI•Mn^2+; test: as above
Method: as §1

[14] = molecular target: AbHpaI•Zn^2+; test: as above
Method: as §1

[15] = test system: EcHpaI; settings: cited from earlier work

## 4-hydroxy-2-keto-heptane-1,7-dioate aldolase from Acinetobacter baumannii (enzyme)
[1]
  stoichiometry N: 6
[2]
  stoichiometry N: 6

## O=C(O)C(=O)CC(O)C(O)CO [(4R)-KDGal, (4R)-2-keto-3-deoxy-D-galactonate]
[3]
  Km: 300 ± 100 µM
  kcat: 0.05 ± 0.005 s⁻¹
  kcat of cleavage, fold faster than (4S)-KDGlu: 18 fold
  kcat/Km of cleavage, fold greater than (4S)-KDGlu: about 36 fold
[4]
  turnover number of (4R)-KDGal synthesis: ~1.67 s⁻¹

## O=C(O)C(=O)C[C@@H](O)[C@H](O)CO [(4R)-KDGal, (4R)-2-keto-3-deoxy-D-galactonate]
[5]
  Km: 0.3 ± 0.1 mM

## C[C@H](O)CC(=O)C(=O)O [(4S)-HOPA, 4-hydroxy-2-oxopentanoate]
[6]
  turnover number, aldol cleavage: 4 s⁻¹
  turnover number, condensation: 0.9 s⁻¹

## O=C(O)C(=O)C[C@H](O)[C@H](O)CO [(4S)-KDGlu, (4S)-2-keto-3-deoxy-D-gluconate]
[7]
  (4S)-KDGlu formation as compared to (4R)-KDGal: 0.1%
[3]
  kcat: 0.00283 ± 0.00017 s⁻¹
[5]
  Km: 0.6 ± 0.1 mM

## CC#N [ACN, acetronitrile]
[8]
  protein stability of AbHpaI perturbed: 10%

## [Ca+2] [Ca^2+]
[9]
  mole ratio of metal ion per AbHpaI: 0.1

## [Co+2] [Co^2+]
[9]
  mole ratio of metal ion per AbHpaI: 0.8
[10]
  ΔTm: 3.4 °C

## O=C[C@H](O)CO [D-Glyceraldehyde, D-glyceraldehyde]
[4]
  kcat: 2.048 ± 0.293 s⁻¹
[11]
  Km: 10.6 ± 3.6 mM

## C[S+](C)[O-] [DMSO, dimethylsulfoxide]
[8]
  protein stability of AbHpaI perturbed: 10%

## CO [MeOH, methanol]
[8]
  protein stability of AbHpaI perturbed: 10%

## [Mg+2] [Mg^2+]
[9]
  mole ratio of metal ion per AbHpaI: 0.6

## [Mn+2] [Mn^2+]
[9]
  mole ratio of metal ion per AbHpaI: 0.6
[10]
  ΔTm: 1.7 °C

## CC(=O)C(=O)O [Pyruvate, pyruvate]
[4]
  Km: 1600 ± 700 µM
  kcat: 1.713 ± 0.265 s⁻¹
[12]
  Kd: 320 ± 40 µM
[13]
  Kd: 1320 ± 500 µM
[14]
  Kd: 980 ± 60 µM
[15]
  pKa of pyruvate C3-methyl: ~6.5

## [Zn+2] [Zn^2+]
[9]
  mole ratio of metal ion per AbHpaI: 1.1
[10]
  Tm: 87 °C
  ΔTm: 5.7 °C

From PMC8560999 (The Journal of Biological Chemistry, 2021)
